Tests used:
[1] = system: Jurkat NFκB-luciferase cells; test: Jurkat NFκB-Luciferase Assay; assay type: cell-based; settings: Homo sapiens; Jurkat NFκB-luciferase cells activated with anti-CD3 antibody (OKT3), 2.5 hrs at 37° C.; geometric mean; read-out: DGK NFKb Luciferase EC50
Summary of the method: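 Jurkat NFκB-luciferase reporter cells at 1 million cells/ml in RPMI with 10% FBS were added to antibody-coated, compound-containing wells. Luciferase activity read by One-Glo Ex luminescence 7 minutes after reagent addition.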

[2] = biological target: human DGKα (Homo sapiens, UniProt P23743); test: DGKα Biochemical Activity Assay (ADP-Glo); settings: recombinant DGKα 1 nM, 100 μM ATP, 18:1 DAG/POPS/octylglucoside micelles, 1 hour at 25° C.; geometric mean; read-out: HTBS DGKa 1X ATP KM IC50;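 also: luminescent detection of ADP produced as DGKα phosphorylates DAG to phosphatidic acid, IC50 from four-parameter nonlinear curve fit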
Chain of human DGKα (P23743 whole entry): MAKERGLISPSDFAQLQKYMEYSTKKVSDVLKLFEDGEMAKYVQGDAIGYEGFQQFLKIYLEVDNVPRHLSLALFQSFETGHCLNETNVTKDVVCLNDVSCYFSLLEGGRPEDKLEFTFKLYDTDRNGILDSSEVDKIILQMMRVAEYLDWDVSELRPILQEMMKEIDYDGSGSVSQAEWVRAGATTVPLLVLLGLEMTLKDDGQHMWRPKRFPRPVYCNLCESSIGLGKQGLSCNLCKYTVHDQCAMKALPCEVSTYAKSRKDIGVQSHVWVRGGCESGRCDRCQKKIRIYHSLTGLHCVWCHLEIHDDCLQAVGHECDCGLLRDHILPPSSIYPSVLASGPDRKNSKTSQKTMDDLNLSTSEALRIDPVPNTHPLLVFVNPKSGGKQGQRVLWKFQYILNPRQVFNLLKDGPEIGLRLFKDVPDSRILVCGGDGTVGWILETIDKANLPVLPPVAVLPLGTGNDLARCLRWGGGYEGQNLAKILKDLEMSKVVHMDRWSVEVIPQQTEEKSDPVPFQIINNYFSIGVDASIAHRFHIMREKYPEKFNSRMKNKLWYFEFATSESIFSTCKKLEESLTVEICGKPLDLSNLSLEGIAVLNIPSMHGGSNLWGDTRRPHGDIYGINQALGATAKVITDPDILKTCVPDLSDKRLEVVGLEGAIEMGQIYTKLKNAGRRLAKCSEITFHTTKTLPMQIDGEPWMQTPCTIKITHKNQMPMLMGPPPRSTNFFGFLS
From the text: Alternatively, the enzymatic activity of human DGKα was monitored in a biochemical assay in the presence or absence of compounds and using micelles containing 18:1 Diacylglycerol (DAG), 16:0-18:1 PS (POPS) and Octylglucoside as substrate. DGKα activity led to conversion of DAG and ATP to Phosphatidic Acid (PA) and ADP. Levels of ADP were monitored by bioluminescence using the ADP-Glo Kinase Assay (Promega) and were indicative of DGKα activity.
Recombinant DGKα (Carna Biosciences) in assay buffer (5 μL in 50 mM MOPS [3-(N-morpholino) propanesulfonic acid], pH 7.2; 0.0025% Triton X-100; 1 mM dithiothreitol; 5 mM MgCl2, 200 μM ATP) was added to the compound-containing plate and was incubated for 15 minutes at 25° C. […] The reaction mixture was incubated at 25° C. for 1 hour. ADP-Glo Reagent (10 μL, 10 mM Mg added) provided by the kit was added to each well and incubated at 25° C. for 40 minutes. Then, 20 μL of Kinase Detection Reagent was added and incubated at 25° C. for 40 minutes. Luciferase activity of each well was measured via luminescence on an Envision plate reader (PerkinElmer).
Least squares curve fittings were performed using a four-parameter variable slope nonlinear regression model. […] IC50 values from multiple experiments were averaged by geometric mean and the standard deviation was calculated.

Structure (SMILES): Cc1nnc2nc(N3CCOCc4c(C#CC(C)(C)NC(=O)C5(C(F)(F)F)CC5)cccc43)c3c(F)c(F)ccc3n12 [Example 182, N-[3-[1-(6,7-Difluoro-1-methyl-[1,2,4]triazolo[4,3-a]quinazolin-5-yl)-3,5-dihydro-2H-4,1-benzoxazepin-6-yl]-1,1-dimethyl-prop-2-ynyl]-1-(trifluoromethyl)cyclopropanecarboxamide]
- EC50 [1]: 4.27 nM
- IC50 [2]: 2.41 nM

Structure (SMILES): CCCCCc1cc(C2(C#Cc3cccc4c3CCCN4c3nc4nnc(C)n4c4cccc(F)c34)CC2)no1 [Example 221, 3-(1-((1-(6-fluoro-1-methyl-[1,2,4]triazolo[4,3-a]quinazolin-5-yl)-1,2,3,4-tetrahydroquinolin-5-yl)ethynyl)cyclopropyl)-5-pentylisoxazole]
- EC50 [1]: 0.647 nM
- IC50 [2]: 122 nM

Structure (SMILES): Cc1nnc2nc(N3CCOCc4c(C#CC5(C)CC5)cccc43)c3cc(C#N)ccc3n12 [Example 109]
- EC50 [1]: 1.67 nM
- IC50 [2]: 7.3 nM

Structure (SMILES): Fc1cc(C#CC2(C(F)(F)F)CC2)cc(N(CC(F)F)c2nc3nncn3c3c(Cl)cc(F)cc23)c1 [Example 48, 9-chloro-N-(2,2-difluoroethyl)-7-fluoro-N-[3-fluoro-5-[2-[1-(trifluoromethyl)cyclopropyl]ethynyl]phenyl]-[1,2,4]triazolo[4,3-a]quinazolin-5-amine]
- EC50 [1]: 3.02 nM
- IC50 [2]: 5.73 nM

Structure (SMILES): Cc1nnc2nc(N(CC(F)F)c3ccnc(C#CC4CC4)c3)c3cc(F)ccc3n12 [Example 87, N-(2-(cyclopropylethynyl)pyridin-4-yl)-N-(2,2-difluoroethyl)-7-fluoro-1-methyl-[1,2,4]triazolo[4,3-a]quinazolin-5-amine]
- EC50 [1]: 7.57 nM
- IC50 [2]: 3.5 nM

Structure (SMILES): Cc1nnc2nc(N3CCCc4c(C#CC5CC5)cccc43)c3c(F)c(F)ccc3n12 [Example 131, 5-[5-(2-cyclopropylethynyl)-3,4-dihydro-2H-quinolin-1-yl]-6,7-difluoro-1-methyl-[1,2,4]triazolo[4,3-a]quinazoline]
- EC50 [1]: 2.14 nM
- IC50 [2]: 8.68 nM

Structure (SMILES): Cc1nnc2nc(N3CCOCc4c(C#CC5(NC(=O)C6(C(F)(F)F)CC6)CC5)cccc43)c3c(F)cccc3n12 [Example 145, N-(1-((1-(6-fluoro-1-methyl-[1,2,4]triazolo[4,3-a]quinazolin-5-yl)-1,2,3,5-tetrahydrobenzo[e][1,4]oxazepin-6-yl)ethynyl)cyclopropyl)-1-(trifluoromethyl) cyclopropane-1-carboxamide]
- EC50 [1]: 1.21 nM
- IC50 [2]: 6.87 nM

Structure (SMILES): Cc1nnc2nc(N3CCOCc4c(N5CCC(C)(C#N)CC5)cccc43)c3c(F)cccc3n12 [Example 154, 1-[1-(6-fluoro-1-methyl-[1,2,4]triazolo[4,3-a]quinazolin-5-yl)-3,5-dihydro-2H-4,1-benzoxazepin-6-yl]-4-methyl-piperidine-4-carbonitrile]
- EC50 [1]: 6.33 nM
- IC50 [2]: 7.42 nM

Structure (SMILES): Cc1nnc2nc(N3CCCc4c(C#CC(C)(C)C(=O)NC5(C(F)(F)F)CC5)cccc43)c3c(F)cccc3n12 [Example 65, 4-(1-(6-fluoro-1-methyl-[1,2,4]triazolo[4,3-a]quinazolin-5-yl)-1,2,3,4-tetrahydroquinolin-5-yl)-2,2-dimethyl-N-(1-(trifluoromethyl)cyclopropyl)but-3-ynamide]
- EC50 [1]: 46.7 nM
- IC50 [2]: 189 nM

Structure (SMILES): COCCN(c1cc(F)cc(C#CC2(C(F)(F)F)CC2)c1)c1nc2nncn2c2cccc(F)c12 [Example 98, 6-fluoro-N-(3-fluoro-5-((1-(trifluoromethyl)cyclopropyl)ethynyl)phenyl)-N-(2-methoxyethyl)-[1,2,4]triazolo[4,3-a]quinazolin-5-amine]
- EC50 [1]: 18.8 nM
- IC50 [2]: 84.7 nM

Structure (SMILES): COc1ccc(C#Cc2cccc3c2CCCN3c2nc3nnc(C)n3c3ccc(F)cc23)cn1 [Example 228, 7-fluoro-5-[5-[2-(6-methoxy-3-pyridyl)ethynyl]-3,4-dihydro-2H-quinolin-1-yl]-1-methyl-[1,2,4]triazolo[4,3-a]quinazoline]
- EC50 [1]: 0.319 nM
- IC50 [2]: 17.8 nM

Structure (SMILES): Cc1nnc2nc(N(CC(F)F)c3cccc(C#CC(C)(C)C(F)F)c3F)c3c(F)cccc3n12 [Example 53, N-[3-(4,4-difluoro-3,3-dimethyl-but-1-ynyl)-2-fluoro-phenyl]-N-(2,2-difluoroethyl)-6-fluoro-1-methyl-[1,2,4]triazolo[4,3-a]quinazolin-5-amine]
- EC50 [1]: 0.792 nM
- IC50 [2]: 18.6 nM

Structure (SMILES): Cc1nnc2nc(N(CC(F)F)c3cccc(C#CC4(C)CC4)c3F)c3c(F)cccc3n12 [Example 52, N-(2,2-difluoroethyl)-6-fluoro-N-[2-fluoro-3-[2-(1-methylcyclopropyl)ethynyl]phenyl]-1-methyl-[1,2,4]triazolo[4,3-a]quinazolin-5-amine]
- EC50 [1]: 0.583 nM
- IC50 [2]: 7.98 nM

Structure (SMILES): Cc1nnc2nc(N3CCCc4c(C#CC(C)(C)NC(=O)OC(C)(C)C)cccc43)c3c(F)cccc3n12 [Example 150, Tert-Butyl (4-(1-(6-fluoro-1-methyl-[1,2,4]triazolo[4,3-a]quinazolin-5-yl)-1,2,3,4-tetrahydroquinolin-5-yl)-2-methylbut-3-yn-2-yl)carbamate]
- EC50 [1]: 2.48 nM
- IC50 [2]: 11.5 nM

Structure (SMILES): Fc1ccc2c(c1)c(N(CC(F)F)c1ccnc(C#CC3(C(F)(F)F)CC3)c1)nc1nncn12 [Example 103, N-(2,2-difluoroethyl)-7-fluoro-N-(2-((1-(trifluoromethyl)cyclopropyl)ethynyl)pyridin-4-yl)-[1,2,4]triazolo[4,3-a]quinazolin-5-amine]
- EC50 [1]: 2.27 nM
- IC50 [2]: 5.13 nM

Structure (SMILES): Cc1nnc2nc(N3CCCOc4c(C#CC5(C)CC5)cncc43)c3cc(F)ccc3n12 [Example 173, 5-(7-fluoro-1-methyl-[1,2,4]triazolo[4,3-a]quinazolin-5-yl)-9-[2-(1-methylcyclopropyl)ethynyl]-3,4-dihydro-2H-pyrido[4,3-b][1,4]oxazepine]
- EC50 [1]: 2.03 nM
- IC50 [2]: 17.2 nM

Structure (SMILES): Cc1nnc2nc(N3CCCCc4c(C#CC5(C(F)F)CC5)cncc43)c3c(F)c(F)ccc3n12 [Example 8, 5-(6-((1-(difluoromethyl)cyclopropyl)ethynyl)-2,3,4,5-tetrahydro-1H-pyrido[3,4-b]azepin-1-yl)-6,7-difluoro-1-methyl-[1,2,4]triazolo[4,3-a]quinazoline]
- EC50 [1]: 1.65 nM
- IC50 [2]: 17.7 nM

Structure (SMILES): CC1(C#Cc2cc(N(CC(F)F)c3nc4nncn4c4ccc(F)cc34)ccn2)CC1 [Example 102, N-(2,2-difluoroethyl)-7-fluoro-N-(2-((1-methylcyclopropyl)ethynyl)pyridin-4-yl)-[1,2,4]triazolo[4,3-a]quinazolin-5-amine]
- EC50 [1]: 2.81 nM
- IC50 [2]: 3.8 nM

Structure (SMILES): Cc1nnc2nc(N3CCCc4c(C#CC(C)(C)C(F)(F)F)cncc43)c3c(F)c(F)ccc3n12 [Example 90, 6,7-difluoro-1-methyl-5-(5-(4,4,4-trifluoro-3,3-dimethylbut-1-yn-1-yl)-3,4-dihydro-1,7-naphthyridin-1(2H)-yl)-[1,2,4]triazolo[4,3-a]quinazoline]
- EC50 [1]: 1.88 nM
- IC50 [2]: 29.3 nM

Structure (SMILES): COc1ccc(C#Cc2cc(N(CC(F)F)c3nc4nnc(C)n4c4cccc(F)c34)ccn2)cn1 [Example 74, N-(2,2-difluoroethyl)-6-fluoro-N-(2-((6-methoxypyridin-3-yl)ethynyl)pyridin-4-yl)-1-methyl-[1,2,4]triazolo[4,3-a]quinazolin-5-amine]
- EC50 [1]: 1.95 nM
- IC50 [2]: 6.1 nM

Structure (SMILES): CC(C)(O)C#Cc1cccc2c1CCCCN2c1nc2nncn2c2c(F)ccc(F)c12 [Example 110]
- EC50 [1]: 9.8 nM
- IC50 [2]: 2.76 nM

Source: patent publication US11976072B2, “Diacylglycerol kinase modulating compounds” (priority 2021, dated 2024)
